Data reported in paper PMC11112612, “Sulfonylureas exert antidiabetic action on adipocytes by inhibition of PPARγ serine 273 phosphorylation” (Molecular Metabolism, 2024).

Tests used:
[1] = biological target: T1, peroxisome proliferator-activated receptor γ (PPARγ) (Homo sapiens, UniProt P37231); assay: in vitro CDK5/P35 kinase assay on PPARγ LBD (ADP-Glo, phospho-Ser-273 Western blot); histone H1 phosphorylation not inhibited; PPRE luciferase in HEK293T; type: biochemical
T1 construct: gene PPARG; recombinant PPARγ LBD
T1 sequence (P37231 231-505 limits assumed): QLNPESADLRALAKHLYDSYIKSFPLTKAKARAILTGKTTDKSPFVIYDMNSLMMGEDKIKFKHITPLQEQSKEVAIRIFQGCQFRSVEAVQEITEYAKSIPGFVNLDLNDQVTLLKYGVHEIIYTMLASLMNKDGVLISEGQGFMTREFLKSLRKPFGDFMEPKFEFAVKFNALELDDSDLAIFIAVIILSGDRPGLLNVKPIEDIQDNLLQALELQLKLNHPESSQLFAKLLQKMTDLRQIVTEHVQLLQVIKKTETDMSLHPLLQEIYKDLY
T1 sequence (Q00535 whole entry partner, the tested form may be a part): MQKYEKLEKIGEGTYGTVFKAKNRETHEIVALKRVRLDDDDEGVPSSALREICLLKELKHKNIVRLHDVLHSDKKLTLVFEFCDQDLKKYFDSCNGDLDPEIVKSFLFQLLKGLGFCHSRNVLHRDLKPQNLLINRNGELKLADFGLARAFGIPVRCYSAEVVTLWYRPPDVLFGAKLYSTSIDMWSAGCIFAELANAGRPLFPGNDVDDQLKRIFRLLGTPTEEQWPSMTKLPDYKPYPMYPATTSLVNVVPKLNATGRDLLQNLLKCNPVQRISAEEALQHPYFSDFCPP
T1 sequence (Q15078 2-307 partner): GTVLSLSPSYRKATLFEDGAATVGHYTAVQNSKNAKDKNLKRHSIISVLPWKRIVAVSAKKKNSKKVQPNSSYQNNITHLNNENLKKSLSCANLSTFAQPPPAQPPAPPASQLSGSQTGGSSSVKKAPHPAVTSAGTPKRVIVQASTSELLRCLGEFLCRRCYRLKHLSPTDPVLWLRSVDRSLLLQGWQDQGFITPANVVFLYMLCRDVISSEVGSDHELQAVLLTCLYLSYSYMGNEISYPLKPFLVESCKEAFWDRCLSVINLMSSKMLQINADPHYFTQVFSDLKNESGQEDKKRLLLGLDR

[2] = biological target: T1, peroxisome proliferator-activated receptor γ (PPARγ); assay: in vitro CDK5/P35 kinase assay on PPARγ LBD (ADP-Glo, phospho-Ser-273 Western blot); histone H1 phosphorylation not inhibited; weak PPRE luciferase activation; type: biochemical

COc1ccc(Cl)cc1C(=O)NCCc1ccc(S(=O)(=O)NC(=O)NC2CCCCC2)cc1 [glibenclamide]
IC50 [1]: 25 nM

CCC1=C(C)CN(C(=O)NCCc2ccc(S(=O)(=O)NC(=O)N[C@H]3CC[C@H](C)CC3)cc2)C1=O [glimepiride]
IC50 [2]: 378 nM
